Data published in patent US20210323940A1 (OCEANS LTD., priority 2018, published 2021).

Legend:
[1] = tested on: MDA-MB-231 human breast cancer cells; assay: Murine flank tumor model, pure compound (II): tumor volume and weight; assay type: in vivo, nude mice (strain J:NU); details: for Tumour weight (mg) ± SEM, extracted at necropsy: intraperitoneal every second day, 4 weeks
Experimental: Animal studies were conducted under ACC protocol #17-020 and Biosafety protocol #6007077 approved by the Atlantic Veterinary College (AVC, UPEI). Briefly, homozygous outbred nude mice (strain J:NU, 4-weeks old, female) suitable as immunodeficient tumor transplant hosts were procured from a commercial supplier (Jackson Labs, Maine, USA) and acclimatized in a barrier facility (AVC, UPEI) for one week.
To establish the tumors, MDA-MB-231 human breast cancer cells were cultured in vitro and harvested when they were between 60 to 80% confluent. Under anesthetized conditions, each the mouse was injected subcutaneously into both right and left flanks with […] (50:50 in matrigel:DMEM). Tumors development was monitored over a 2-week period. At 2 weeks, tumor established mice (tumor volume ˜20 mm^3) were selected and randomly grouped based on the tumor volume and body weight into ten mice per group as follows: • Group 1: Vehicle control (VC, DMSO 2%, Kholliphor EL 2%) • Group 2: Compound (II), 10 mg/kg body weight • Group 3: Compound (II), 5 mg/kg body weight
Seaweed extract was dissolved in molecular grade DMSO, liquid emulsion was prepared in Kholliphor EL (Sigma, USA) and the final injectable solution was prepared using sterile normal saline.
Mice with established tumors were treated every second day by intraperitoneal injections of test extracts over a 4-week time course. From each group a minimum of 16 tumors were selected for analysis. Tumors were measured weekly using external calipers and volumes established using the modified ellipsoidal formula: tumor volume=0.5 (length×width^2).
In addition, body weights and general animal health were assessed twice weekly during the treatment period. At study termination, mice were sacrificed, and tumors excised from the flank. To evaluate tumor metastasis, an explorative necropsy was conducted in each mouse and the presence and frequency of additional tumors at sites distal to the flank were assessed. Tumor tissue from the flank region was collected and preserved in 10% neutral buffered formalin for histology. Variance within each of the treatment groups to vehicle control was assessed over the four-week time course by one-way ANOVA.

[2] = tested on: MDA-MB-231 breast cancer cells; assay: Murine flank tumour model, synthesized compound (II) (DHODO): tumour volume; assay type: in vivo, nude mice (strain J:NU)
Experimental: Test material was dissolved in DMSO and the final injectable solution was prepared using PBS. Homozygous outbred nude mice (strain J:NU, 6-weeks old, female) suitable as immune-deficient tumour transplant hosts will be procured from a commercial supplier (Jackson Labs, Maine, USA) and acclimatized in a barrier facility (AVC) for one week. Mice were weighed and random groups of ten mice were established based on the tumour volume and body weight as follows: To establish the tumours, MDA-MB-231 breast cancer cells (2.5 million cells in 100 pl 50:50 matrigel:DMEM) were injected subcutaneously into both right and left flanks. Tumours were evaluated over a 2-week period until sufficient volume growth (approximately 20 mm3) for subsequent analysis had occurred. During this period, body weights were measured twice weekly. Mice with established tumours were treated every second day by intraperitoneal injections of test compounds over a 4-week time course. From each group a minimum of 15 tumours were selected for analysis. Tumours were measured weekly using external calipers and volumes established using the modified ellipsoidal formula: tumour volume=0.5 (length×width2). In addition, body weights and general animal health were assessed twice weekly during the treatment period. At study termination, mice were sacrificed and tumours excised from the flank was weighed. To evaluate tumour metastasis, an explorative necropsy was conducted in each mouse and the presence and frequency of additional tumours at sites distal to the flank were assessed.

CCCCC[C@H](O)[C@H](O)/C=C/[C@@H]1CCCCCCCC(=O)O1 [compound (II), 12R, 13S-Dihydroxy-10-Octadecen-9S-olide]
Tumour volumes ± SEM ([1]; 5 mg/kg b. wt. i.p. every second day, Week 0): 26.94 ± 1.98 mm^3
Tumour volumes ± SEM ([1]; 5 mg/kg b. wt. i.p. every second day, Week 1): 20.83 ± 2.20 mm^3
Tumour volumes ± SEM ([1]; 5 mg/kg b. wt. i.p. every second day, Week 2): 17.38 ± 2.04*¶ mm^3
Tumour volumes ± SEM ([1]; 5 mg/kg b. wt. i.p. every second day, Week 3): 17.23 ± 3.18*¶ mm^3
Tumour volumes ± SEM ([1]; 5 mg/kg b. wt. i.p. every second day, Week 4): 28.01 ± 3.61*¶ mm^3
Tumour weight (mg) ± SEM, extracted at necropsy ([1]; 5 mg/kg b.wt.): 34.64 ± 15.78 mg
Tumour volumes ± SEM ([1]; 10 mg/kg b. wt. i.p. every second day, Week 0): 27.09 ± 1.60 mm^3
Tumour volumes ± SEM ([1]; 10 mg/kg b. wt. i.p. every second day, Week 1): 24.06 ± 1.98 mm^3
Tumour volumes ± SEM ([1]; 10 mg/kg b. wt. i.p. every second day, Week 2): 17.40 ± 2.88*¶ mm^3
Tumour volumes ± SEM ([1]; 10 mg/kg b. wt. i.p. every second day, Week 3): 18.95 ± 5.34*¶ mm^3
Tumour volumes ± SEM ([1]; 10 mg/kg b. wt. i.p. every second day, Week 4): 28.37 ± 9.37*¶ mm^3
Tumour weight (mg) ± SEM, extracted at necropsy ([1]; 10 mg/kg b.wt.): 27.29 ± 8.07 mg
tumor volume at the end of 4-weeks (average) ([1]; 5 and 10 mg/kg, controls rose from 26 to 73 mm^3): ~27 mm^3
change in tumor size during the 4-week study ([1]; both tested concentrations (5 and 10 mg/kg)): no significant change in tumor size
Tumour weight at necropsy ([2]; 1 mg): 0.0815 g
Tumour size expressed in volume ([2]; 1 mg/kg, Week 0): 40.59 mm^3
Tumour size expressed in volume ([2]; 1 mg/kg, Week 1): 36.34 mm^3
Tumour size expressed in volume ([2]; 1 mg/kg, Week 2): 65.15 mm^3
Tumour size expressed in volume ([2]; 1 mg/kg, Week 3): 82.66 mm^3
Tumour size expressed in volume ([2]; 1 mg/kg, Week 4): 110.23 mm^3
Tumour weight at necropsy ([2]; 5 mg): 0.0380 g
tumour growth ([2]; 5 mg/kg): inhibited tumour growth
Tumour volumes reduced by ([2]; 5 mg/kg, intraperitoneal every second day, 4 weeks): 50%
Tumour size expressed in volume ([2]; 5 mg/kg, Week 0): 44.24 mm^3
Tumour size expressed in volume ([2]; 5 mg/kg, Week 1): 30.47 mm^3
Tumour size expressed in volume ([2]; 5 mg/kg, Week 2): 39.17 mm^3
Tumour size expressed in volume ([2]; 5 mg/kg, Week 3): 43.73 mm^3
Tumour size expressed in volume ([2]; 5 mg/kg, Week 4): 66.83 mm^3
Tumour weight at necropsy ([2]; 10 mg): 0.0913 g
Tumour size expressed in volume ([2]; 10 mg/kg, Week 0): 46.33 mm^3
Tumour size expressed in volume ([2]; 10 mg/kg, Week 1): 52.86 mm^3
Tumour size expressed in volume ([2]; 10 mg/kg, Week 2): 71.23 mm^3
Tumour size expressed in volume ([2]; 10 mg/kg, Week 3): 73.39 mm^3
Tumour size expressed in volume ([2]; 10 mg/kg, Week 4): 154.29 mm^3
reduction in tumour growth ([2]; 1 and 10 mg/kg, early exponential tumour growth in these groups): No reduction in tumour growth
